Results taken from PubChem BioAssay (NCI).
Counter-ions that a name gives are not always drawn.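 Where inhibition never reached the appropriate level, the endpoint shown equals the highest concentration tested. Otherwise, values were interpolated linearly from a five-concentration, 48-hour dose response in 96-well plates. The concentration for full growth arrest is given as TGI.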 Where a SMILES comes first, the peptide text is derived from it. The star is where a group is joined. Tfa = O=C(C(F)(F)F)*

Key:
Assay in all cases: NCI-60 cell line screen, 48 h
CCRF-CEM leukemia = system: CCRF-CEM leukemia
HCT-116 colon = system: HCT-116 colon
M14 melanoma = system: M14 melanoma
MDA-MB-231 breast = system: MDA-MB-231 breast
NCI/ADR-RES ovarian = system: NCI/ADR-RES ovarian
OVCAR-3 ovarian = system: OVCAR-3 ovarian
U251 CNS = system: U251 CNS
UO-31 renal = system: UO-31 renal
SK-OV-3 ovarian = system: SK-OV-3 ovarian

Row | Compound | TGI (CCRF-CEM leukemia) [µM] | TGI (HCT-116 colon) [µM] | TGI (M14 melanoma) [µM] | TGI (MDA-MB-231 breast) [µM] | TGI (NCI/ADR-RES ovarian) [µM] | TGI (OVCAR-3 ovarian) [µM] | TGI (U251 CNS) [µM] | TGI (UO-31 renal) [µM] | TGI (SK-OV-3 ovarian) [µM]
1 | O=S(=O)(O)c1c(Cl)cc(O)c2ncccc12 | > 100 | > 100 | > 100 | > 100 | > 100 | > 100 | > 100 | > 100 | 
2 | Cc1cccc(C(C)C)c1NC(=O)C(=O)CC(=O)c1sc(Nc2ccccc2Cl)nc1C | > 100 | > 100 | > 100 | > 100 |  | > 100 | > 100 | > 100 | > 100
3 | C/C(CC/C(C)=N/O)=N\O |  | > 100 | > 100 | > 100 | > 100 | > 100 | > 100 | > 100 | > 100
4 | CS(=O)(=O)c1ccc(/C=N/NC(N)=S)cc1 |  | > 100 | > 100 | > 100 | > 100 | > 100 | > 100 | > 100 | > 100
5 | O=C1/C(=C/c2ccccc2)CCCC1CN1CCCCC1 (stereo unspecified) |  | 3.15 | 3.36 | 3.89 | 13 | 3.24 | 27 | 3.82 | 31
6 | COc1ccccc1/C=C/C1=NN(c2cccc(S(=O)(=O)O)c2)C2(C1)SCC(=O)N2c1nc2ccccc2s1 (stereo unspecified) | 90 | > 100 | > 100 | > 100 | > 100 |  | > 100 | > 100 | 
7 | O=c1c2cc(-c3ccccc3)sc2nc2n1N=C(c1ccccc1)CS2 | > 100 | > 100 |  | > 100 | 57.5 | 49.1 | 48.4 | > 100 | 26.3
8 | CC1CC(C)C(O)C(C2CC(CC(=O)NC3CCCCC3)CC(=O)O2)C1 (stereo unspecified) | > 100 | > 100 | > 100 | > 100 | > 100 | > 100 | > 100 |  | 
9 | Oc1ccc(-c2csc(NNC3=NC/C(=C/c4ccc5c(c4)OCO5)S3)n2)cc1O |  | > 100 | > 100 | > 100 | > 100 |  | > 100 | 69.2 | > 100
10 | COc1cc(-c2cn(S(=O)(=O)c3ccc(C)cc3)c3ccccc23)nc(-c2cn(S(=O)(=O)c3ccc(C)cc3)c3ccccc23)n1 | 24.7 | > 33.8 | 17 |  | > 100 | > 100 | 13.8 | > 75.1 | > 100
11 | COc1ccc(Oc2cccc(/C=C3/C(=O)Nc4ccccc43)c2)cc1 | 22.1 | 15.2 | 24.3 |  | 17.8 | 21.6 | 14.2 | 20 | 31
12 | Nc1sc2c(c1C(=O)c1ccc(Cl)c(Cl)c1)CCCC2 | > 100 | > 100 | > 100 | > 100 |  | > 100 | > 100 | > 100 | > 100
13 | O=C(O)CC(NC(=O)C(F)(F)F)C(=O)NC(Cc1ccc(O)cc1)C(=O)O (stereo not drawn) (Tfa-Asp-Tyr-OH; configuration not given here) |  |  | > 50 | > 50 | > 50 | > 50 | > 50 | > 50 | > 50
14 | O=C(OCc1ccccc1CN1CCOCC1)c1cccc(Br)c1 |  | > 100 | > 100 | > 100 | 79.8 | 44.3 | > 100 | > 100 | > 100
15 | O=P1(O)C=CC2(CCCC2)O1 |  | > 100 | > 100 |  | > 100 | > 100 | > 100 |  | > 100
16 | NCC(=O)NC1(c2cc3ccccc3s2)CCCCC1 | 59.5 | > 100 | 34 |  | > 100 | > 100 |  | > 100 | > 100
17 | Cc1ccc2c3c1O[C@H]1c4[nH]c5ccccc5c4C[C@@]4(O)[C@@H](C2)N(C)CC[C@]314 | 35 | 31 | 31.1 | 28.5 | 35.8 |  | 29.5 | 27.1 | 
18 | CC(=O)Nc1ccc(Nc2cc(=O)[nH]c(=O)[nH]2)cc1 |  | > 100 | > 100 | > 100 | > 100 | > 100 | > 100 | > 100 | 
19 | COC(=O)c1c2c(cc3c1CC1(Cc4cc5c(c(C=O)c4C1)CCCC5)C3)CCCC2 (stereo unspecified) |  | 47.3 | > 100 | > 100 | > 100 | > 100 | > 100 | 0.268 | > 100
20 | COc1ccc2nc3cc(Cl)ccc3c(NCCCN(Cc3cc(OC)c(OC)c(OC)c3)Cc3cc(OC)c(OC)c(OC)c3)c2c1 |  | 1.7 | 3.45 | 10.6 | 86.5 | 34.6 | 17.3 | 26.1 | 32.8
